Data published in PubChem BioAssay AID2765 (Broad Institute, 2010).
Activity calls are given as the source filed them.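 Rule for the calls: active = half-maximal concentration for the rise in caspase light signal at or below ten times the top tested dose; inconclusive = flat fit between 30% and 70% activity, or unreliable curve fit; inactive = the rest.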

What follows are compounds tested on MEF A1-2A-BIM cells, caspase 3/7 luminescence, 3 h (assay: inducers of caspase signal in A1-dependent MEFs – cell-based, luminescence, retest, A1 inhibitor project, dose response (AID 2765)).

| Structure (SMILES) | EC50 |
| --- | --- |
| Cc1ccc(C(=O)/C=C/C(=O)c2ccc(C)cc2)cc1 | 19.4 µM |
| O=C(c1ccco1)N1CCN(C(=O)C2CCN(S(=O)(=O)c3cccs3)CC2)CC1 | > 35 µM (inactive) |
| COc1ccc(Nc2cc3n(c(=O)n2)CCc2cc(OC)c(OC)cc2-3)c(C)c1 | > 35 µM (inactive) |
| Cc1c(C(=O)c2ccccc2C(=O)O)sc2ccccc12 | > 35 µM (inactive) |
| Cc1ccc(NC(=O)Cn2c(=O)cnc3ccccc32)cc1S(=O)(=O)N1CCOCC1 | > 35 µM (inactive) |
| CCOc1ccccc1NC(=O)Nc1cc(OC)ccc1OC | > 35 µM (inactive) |
| CS(=O)(=O)c1ncc(Cl)c(C(=O)Nc2ccc(N3CCOCC3)cc2)n1 | > 35 µM (inactive) |
| Cc1ccc(C)c(NC(=S)NC(NC(=O)Cc2cccc3ccccc23)C(Cl)(Cl)Cl)c1 (centres undefined) | 5.84 µM |
| O=C(COC(=O)Cc1ccccc1[N+](=O)[O-])NCc1ccc(Cl)cc1 | > 35 µM (inactive) |
| CCc1cc(-c2[nH]ncc2-c2ccc(OC)cc2)c(O)cc1O | > 35 µM (inactive) |
| COc1ccccc1N1C(=O)c2cccc3c(Cl)ccc(c23)C1=O | > 35 µM (inactive) |
| CC(=O)OC(C)(C)/C=C/C(=O)[C@](C)(O)C1[C@H](O)C[C@@]2(C)C3CC=C4C(C[C@H](O)C(=O)C4(C)C)[C@]3(C)C(=O)C[C@]12C (some centres undefined) | > 35 µM (inactive) |
| O=C(COc1ccc(Br)cc1F)NCC1(N2CCCCC2)CCCCC1 | > 35 µM (inactive) |
| CC(C)(C)NC(=O)NC(=O)COC(=O)CNS(=O)(=O)/C=C/c1ccccc1 | > 35 µM (inactive) |
| O=C(Nc1ccc(S(=O)(=O)N2CCOCC2)cc1)c1ccco1 | > 35 µM (inactive) |
| CC(=O)c1ccc(N(C(=O)c2csnn2)C(C(=O)NC(C)(C)C)c2cccs2)cc1 (centres undefined) | > 35 µM (inactive) |
| CCOC(=O)CN1C(=O)CC(c2ccc([N+](=O)[O-])cc2)C1=O (centres undefined) | > 35 µM (inactive) |
| O=C(/C=C/c1ccc(Cl)cc1)c1ccc([N+](=O)[O-])o1 | > 35 µM (inactive) |
| O=C(O)c1cn(-c2ccccc2)c(=O)c2ccccc12 | > 35 µM (inactive) |
| O=C(CCC(=O)c1cccs1)OCC(=O)c1ccccc1 | > 35 µM (inactive) |
| O=C(COc1ccc(/C=N/NC(=O)c2cc3ccccc3o2)cc1Br)Nc1ccccc1 | 31.2 µM |
| COc1ccc(OC)c(CNc2ccc([N+](=O)[O-])cc2C)c1 | > 35 µM (inactive) |
| Cc1cc(Sc2ncnc(N)c2[N+](=O)[O-])ncn1 | > 35 µM (inactive) |
| COc1ccc(C[C@H]2NC[C@H](O)[C@H]2OC(C)=O)cc1 | > 35 µM (inactive) |

| Structure (SMILES) | EC50 |
| --- | --- |
| COc1cc(/C=C(/C#N)c2nc3ccccc3[nH]2)ccc1OCC(=O)Nc1ccccc1C | 4.3 µM |
| CC1(C)OC(=O)C(=Cc2ccc(-c3ccc(S(N)(=O)=O)cc3)o2)C(=O)O1 | > 35 µM (inactive) |
| Cc1c(C(=O)NCCN2C(=O)S/C(=C\c3cccs3)C2=O)cccc1[N+](=O)[O-] | > 35 µM (inactive) |
| CCc1ccc2nc(N(CCCN(C)C)C(=O)c3ccc(S(=O)(=O)N4CCc5ccccc5C4)cc3)sc2c1 | > 35 µM (inactive) |
| CCc1ccc(N(CC)C(=O)c2cn(C)c(=O)c3ccccc23)cc1 | > 35 µM (inactive) |
| COc1ccccc1OCC(=O)NNC(=O)c1ccc(F)c(S(=O)(=O)N2CCOCC2)c1 | > 35 µM (inactive) |
| Cc1c(Cl)cccc1NC(=O)[C@@]1(CC(=O)O)CC(/C=C/c2ccccc2)=NO1 | > 35 µM (inactive) |
| CCN(C(=O)CSc1nc2ccccc2n1CC)C1CCS(=O)(=O)C1 (centres undefined) | > 35 µM (inactive) |
| COc1ccc(S(=O)(=O)Nc2c(C)n(C)n(-c3ccccc3)c2=O)cc1 | > 35 µM (inactive) |
| Cc1ccc(C(C(=O)NCc2ccco2)N(C(=O)Cc2cccs2)c2cccnc2)cc1 (centres undefined) | > 35 µM (inactive) |
| O=S1(=O)C=C(Sc2nnc(-c3ccccc3)o2)c2ccccc21 | > 35 µM (inactive) |
| COc1cc(Cl)c(C)cc1NC(=O)CSc1cc(Cl)ccc1Cl | > 35 µM (inactive) |
| COc1ccc(-c2nn(-c3ccccc3)cc2/C=C/C(=O)OCC(=O)Nc2ccccc2C#N)cc1 | 21.2 µM |
| CC(C)CC(=O)Nc1ccc2c(c1)OCO2 | > 35 µM (inactive) |
| CCCn1c(SCC(=O)NC)nc2sc3c(c2c1=O)CCC3 | > 35 µM (inactive) |
| Cn1nnnc1Sc1ncnc2scc(-c3cccc4c3sc3ccccc34)c12 | > 35 µM (inactive) |
| COc1cccc(-c2cc(=O)c3cc(NC(=O)c4ccc(N(C)C)cc4)ccc3[nH]2)c1 | > 35 µM (inactive) |
| COc1ccccc1N1CCN(C(c2ccccc2)c2nnnn2CCc2ccccc2)CC1 (centres undefined) | > 35 µM (inactive) |
| COc1cc(NC(=O)c2ccc(C)cc2C)ccc1NC(=O)c1cc2ccccc2o1 | 26.7 µM |
| CC(=O)Oc1ccccc1C(=O)Oc1ccccc1C(=O)O | > 35 µM (inactive) |
| NS(=O)(=O)c1ccc(CCNC(=O)CN2CCN(S(=O)(=O)c3ccccc3F)CC2)cc1 | > 35 µM (inactive) |
| Cc1cccc2c3c([nH]c12)CCN(C)C3 | > 35 µM (inactive) |
| CC(C)[C@H](NS(=O)(=O)c1ccccc1F)C(=O)OCC(=O)Nc1cccc(S(N)(=O)=O)c1 | > 35 µM (inactive) |
| COc1cc(-c2nnc(NC(=O)CCS(=O)(=O)c3ccc(F)cc3)o2)cc(OC)c1OC | > 35 µM (inactive) |

| Structure (SMILES) | EC50 |
| --- | --- |
| O=C1N(S(=O)(=O)c2ccccc2F)C(=O)C2(CCCC2)N1S(=O)(=O)c1ccccc1F | > 35 µM (inactive) |
| COc1ccc(S(=O)(=O)N(C)C[C@H]2Oc3ccc(NC(=O)Nc4c(C)noc4C)cc3C(=O)N([C@H](C)CO)C[C@@H]2C)cc1 | > 35 µM (inactive) |
| O=C1c2ccsc2SCCN1Cc1cccc(F)c1 | > 35 µM (inactive) |
| CC(Oc1ccccc1)C(=O)N1CCN=C1SCc1ccccc1 (centres undefined) | > 35 µM (inactive) |
| COc1cc(NS(=O)(=O)c2cc(C(=O)NCCc3ccccn3)ccc2OC)cc(OC)c1 | > 35 µM (inactive) |
| CCOC(=O)/C(=C\c1ccc(OC)c(OC)c1)C(=O)c1cccnc1 | > 35 µM (inactive) |
| O=C(CN1C(=O)c2ccccc2S1(=O)=O)N1CCN(Cc2ccc3c(c2)OCO3)CC1 | > 35 µM (inactive) |
| O=C(Nc1ccc2oc(-c3ccccc3)nc2c1)c1ccccc1F | > 35 µM (inactive) |
| Cc1noc(C)c1COc1ccc(C(=O)OC(C)C(=O)Nc2ccc(N3CCOCC3)cc2)cc1 (centres undefined) | > 35 µM (inactive) |
| COc1cc(CN2CCNC(=O)C2CC(=O)N(C)CCCN2CCOCC2)cc(OC)c1 (centres undefined) | > 35 µM (inactive) |
| COc1ccc(-c2nc(NC(=O)c3n[nH]c(=O)c4ccccc34)sc2C)cc1 | > 35 µM (inactive) |
| O=C(c1ccco1)N1CCN(C(=O)c2cc(-c3ccccn3)nc3ccc(Cl)cc23)CC1 | > 35 µM (inactive) |
| CC(=O)Nc1ccc(SCCN2CC[C@@H](C(C)(C)C)CCC2=O)cc1 | > 35 µM (inactive) |
| C[N+](C)(C)CCNC(=O)c1cc[n+](Cc2ccccc2)c(/C=N/O)c1 | > 35 µM (inactive) |
| COc1ccc(S(=O)(=O)N(CC(=O)NCCSc2ccccn2)c2ccccc2)cc1 | > 35 µM (inactive) |
| CC(O)[C@H](NC(=O)C1(c2ccccc2)CCN(C(=O)OC(C)(C)C)CC1)C(=O)O (some centres undefined) | > 35 µM (inactive) |
| O=C(c1ccco1)N1CCCN(Cc2nc(-c3ccc4c(c3)OCO4)no2)CC1 | > 35 µM (inactive) |
| COc1ccc(S(=O)(=O)N2CCC(C(=O)N[C@@H](C)C(=O)NCc3ccncc3)CC2)cc1 | > 35 µM (inactive) |
| Cc1nn(Cc2c(Cl)cccc2Cl)c(C)c1NC(=O)c1cn(-c2ccccc2)nc1-c1ccccc1 | 15.1 µM |
| O=C(O)/C(=C\c1c(C(=O)O)[nH]c2cc(Cl)cc(Cl)c12)c1ccccc1 | > 35 µM (inactive) |
| O=C(/C=C/N1CCN(Cc2ccccc2)CC1)C(F)(F)F | > 35 µM (inactive) |
| O=C1C(=O)c2ccc(-c3ccccc3)cc2-c2ccccc21 | > 35 µM (inactive) |
| Cc1ccc2[nH]c3c(c2c1)CCCC3NC(=O)CCl (centres undefined) | > 35 µM (inactive) |
| COc1ccc(-c2nc(CN3CCN(C(=O)c4ccco4)CC3)c(C)o2)cc1OC | > 35 µM (inactive) |

| Structure (SMILES) | EC50 |
| --- | --- |
| COCC(=O)NC(C)c1nc2ccccc2[nH]1 (centres undefined) | > 35 µM (inactive) |
| Cc1noc(C)c1CSCC(=O)N(C)CC(=O)Nc1ccc(Cl)c(Cl)c1 | > 35 µM (inactive) |
| Nc1nc(F)nc2c1ncn2[C@@H]1O[C@H](CO)[C@@H](O)[C@H]1O | > 35 µM (inactive) |
| O=C(CSc1ccc(F)cc1)Nc1ccc(C2SCCS2)cc1 | > 35 µM (inactive) |
| CC1CCc2nn(CC(=O)NCCCN3CCCC3=O)cc2C1 (centres undefined) | > 35 µM (inactive) |
| CC(C)(C)c1ccc(C(=O)Nc2ccc(O)c3c(=O)cc(-c4cccc(Cl)c4)oc23)cc1 | > 35 µM (inactive) |
| CCCOc1ccc(N2C(=O)C3ON(c4ccccc4)C(CCC)C3C2=O)cc1 (centres undefined) | > 35 µM (inactive) |
| COC(=O)C[C@H]1c2ccccc2S(=O)(=O)N1c1cccc(OC)c1 | > 35 µM (inactive) |
| Cc1cc(C)cc(NC(=O)/C(C#N)=C/c2cn(CC(=O)NCc3ccco3)c3ccccc23)c1 | 4.65 µM |
| Cc1cc(=O)oc2c1c(C)nn2-c1ccc(Cl)cc1 | > 35 µM (inactive) |
| COc1ccc(OC)c(C2C(C(C)=O)=C(O)C(=O)N2Cc2cccnc2)c1 (centres undefined) | > 35 µM (inactive) |
| O=C(NCCCNc1ccc(C(F)(F)F)cc1[N+](=O)[O-])c1ccc(F)cc1 | > 35 µM (inactive) |
| Cc1cc(C(=O)N2CCN(c3ccc(F)cc3)CC2)on1 | > 35 µM (inactive) |
| COc1cc(C(=O)NCc2cc(C)nc3ccccc23)cc(OC)c1OC | > 35 µM (inactive) |
| N#Cc1cccnc1N1CCN(C(=O)c2cccc3c2C(=O)c2ccc(-c4ccc(Cl)c(C(F)(F)F)c4)cc2S3(=O)=O)CC1 | > 35 µM (inactive) |
| Cc1ccc(N=C2C(=O)Nc3ccccc32)cc1 | > 35 µM (inactive) |
| Cc1c(Cl)cccc1NC(=O)CN1CCN(CCN=CC2=C(O)CC(c3ccccc3)CC2=O)CC1 (centres undefined) | > 35 µM (inactive) |
| Cn1cnnc1SCC(=O)Nc1ccc(F)cc1 | > 35 µM (inactive) |
| CCOC(=O)c1[nH]c2ccccc2c1NC(=S)Nc1cc(C)ccc1C | > 35 µM (inactive) |
| Cc1cc(C)n(-c2nc(Nc3ccccc3C)nc(-n3nc(C)cc3C)n2)n1 | > 35 µM (inactive) |
| CCOC(=O)c1sc(NC(=O)CSc2nc(C)cc(C)c2C#N)c(C#N)c1C | > 35 µM (inactive) |
| COc1ccc(C2(C(=O)NCCCN(C)C)CCOCC2)cc1 | > 35 µM (inactive) |
